Source: patent US6991685B2, “Low temperature cleaning” (Ecolab Inc., priority 2003, dated 2006)
Read-outs that look alike come from different tables or passages of the source.

Assays:
[1] = tested on: yeast-mold isolate (1/3 black fungal isolate, 1/3 gray fungal isolate, 1/3 Yarrowia lipolytica); assay type: cell-based, yeast-mold isolate from a beverage plant
yeast-mold isolate = assay: Coupon testing for bio-load removal study (five step sanitation program); assay type: cell-based, yeast-mold isolate from a beverage plant; details: silicon rubber coupon pre-treated with the labelled agent, inoculated, then five step sanitation program (2600 ppm Vortexx, 40° C., 15 minutes)
Procedure: The same yeast-mold isolates as in the antimicrobial treatment method were grown up for inoculation onto the coupons. The coupons were inoculated with the isolates. The coupons were then subjected to the inventive five step method involving an initial rinse step, a detergent wash step, an intermediate rinse step, an antimicrobial treatment step, and a final rinse step. The coupons were first placed in 1000 ml of ambient water for 10 minutes. The coupons were then placed in 1000 ml of a wash solution for 60 minutes. The coupons were then placed in a 2600 ppm solution Vortexx™ at 40° C. for 15 minutes. Finally, the coupons were placed in a jar containing sterile water. The carriers were than placed in 25 ml of 0.5% sodium thiosulfate neutralizing solution to suspend any surviving organisms. The neutralizing solution was then filtered and plated on Sabouraud's Dextrose Agar in order to determine the number of surviving organisms.

[2] = 185 F. water, 15 minute contact, Stainless Steel coupon, no pre-treatment

O [185 F. Water, water]
Percent Reduction ([1]; 185 F. water, 15-minute contact, BUNA N coupon, pH 2.3 phosphoric acid 104 F. 2 weeks): >99.5% | Percent Reduction ([1]; 185 F. water, 15-minute contact, BUNA N coupon, pH 13 caustic 185 F. 2 weeks): >99.8% | Filter Survivors [1, 2]: <1 CFU | Percent Reduction [1, 2]: >99.9% | log reduction ([1]; stainless steel coupon, not preconditioned, Table 2 treatments): 3 log | Percent Reduction (avg of 3) (yeast-mold isolate): 38.3% | log reduction (yeast-mold isolate; listed as 185° F. Water): <1 log | log reduction (yeast-mold isolate; listed as 185° F. water): 1 log
